Non-standard residues stand in square brackets, D forms with d. Residues, ends and D or L forms follow the SMILES beside them. *: point of attachment. Sta = CC(C)C[C@H](N)[C@@H](O)CC(=O)O; Isovaleryl = CC(C)CC(=O)*
Legend:
BACE-1 = biological target: T1, BACE-1 (Mus musculus, UniProt P56818); experiment: Brain BACE-1 activity assay, brain membrane extract, coumarin-labeled 10-mer substrate, HPLC detection; assay type: biochemical; conditions: E64 at 10 μM; membrane preparations from WT mice
T1 construct: a brain membrane extract containing endogenous BACE-1; from tissue; host or cells: mouse brain membrane preparation (wild-type mice)
T1 sequence (P56818 46-501): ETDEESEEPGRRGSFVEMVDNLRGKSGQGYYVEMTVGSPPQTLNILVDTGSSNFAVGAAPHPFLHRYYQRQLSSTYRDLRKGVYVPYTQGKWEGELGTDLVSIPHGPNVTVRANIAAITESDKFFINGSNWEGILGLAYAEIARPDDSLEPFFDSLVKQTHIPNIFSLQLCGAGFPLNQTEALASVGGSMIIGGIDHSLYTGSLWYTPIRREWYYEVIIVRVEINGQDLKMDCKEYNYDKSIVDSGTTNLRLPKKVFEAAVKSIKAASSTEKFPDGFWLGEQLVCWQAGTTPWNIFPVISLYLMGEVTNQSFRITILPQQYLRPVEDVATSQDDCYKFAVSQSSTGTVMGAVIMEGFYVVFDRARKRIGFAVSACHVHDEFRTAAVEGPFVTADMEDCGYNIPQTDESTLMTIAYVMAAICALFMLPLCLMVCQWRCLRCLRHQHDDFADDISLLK
Description: (§1) Brain BACE-1 enzymatic activity was measured using brain membrane extracts in a two-step method. In the first reaction step, a brain membrane extract containing endogenous BACE-1 is reacted with a coumarin labeled 10-mer peptide substrate in the presence of non-specific protease inhibitor cocktail and aspartyl protease inhibitor Pepstatin A. In a second detection step, an HPLC-based detection method is used to determine the extent of enzymatic cleavage of the 10-mer substrate.
(§2) Brain membranes are prepared as follows. Mice brain sections are homogenized in 10× w/v 50 mM MES buffer with protease inhibitor (Roche Applied Science, Indianapolis, Ind., Cat#11836145), pH 6.0 using a glass/Teflon homogenizer, using about 10 strokes. The homogenates are then spun at 2000 rpm (900×g) at 4° C. for 10 minutes. […] Protein concentration is determined using modified Bradford method (DC protein assay kit Cat#500-0114, Bio-Rad Laboratories, Hercules, Calif.). […]
(§3) In the second step, the BACE-1 cleavage product is detected. The resulting mixture is then chromatographed in a Waters Alliance HT HPLC system (Waters 2790, Waters Corporation, Milford, Mass.) to detect product and substrate fluorescence as follows. […]
(§4) The amount of cleaved product and substrate are detected with excitation at 340 nm and emission at 440 nm.

BACE-1 activity in CSF = experiment: CSF BACE-1 activity with combinations of protease inhibitors (FIG. 9); assay type: biochemical; conditions: Merck-3 at 10 μM; Pepstatin A 10 μM present
Description: (§5) This example illustrates a method for solution based detection of BACE-1 activity in cerebral spinal fluid (CSF). BACE-1 enzymatic activity in CSF was measured using a two-step method. In the first step, cleavage of a biotinylated peptide substrate is accomplished using CSF as the source of BACE-1 enzyme. In the second step, the extent of enzymatic cleavage of substrate is detected using an avidin-biotin complex and enzyme linked immunosorbent assay (ELISA).
(§6) In the peptide substrate cleavage step, 25 μL of either purified recombinant baculovirus expressed BACE-1(aa1-460) at a range of concentration from 0.8 pM to 100 pM or rhesus or human CSF is added to the wells of a 96 well assay plate (COSTAR brand, Cat#3365). […]
(§7) In the second step, the product of BACE-1 enzymatic cleavage of the biotin-labeled peptide is measured by ELISA. […]
(§8) Afterwards, the plate is washed three times with PBST. […] The reaction is finally developed using 100 μL/well of CDP-STAR ready-to-use with HRP substrate (EMD Biosciences, Inc. San Diego, Calif.) or SAPPHIRE-II Enhancer substrate (Applied Biosystems, Foster City, Calif., Cat# T2214) for 30 minutes at room temperature. Absorbance or Luminescence counts, respectively, are measured in LJL-Analyst (Molecular Devices Corp., Sunnyvale, Calif.). […]

[1] = tested on: non-specific aspartyl protease activity; experiment: Non-specific aspartyl protease activity in brain membrane preparations, same HPLC cleavage assay; assay type: biochemical, mouse; conditions: membrane preparations from WT mice
Description: as §1, §2, §3, §4

[2] = tested on: non-specific aspartyl protease activity; experiment: Non-specific aspartyl protease activity in CSF (FIG. 9); assay type: biochemical; conditions: Pepstatin A 10 μM; this activity was about 59% of the protease activity in CSF
Description: as §5, §6, §7, §8

CC(C)C[C@H](NC(=O)[C@H]1O[C@@H]1C(=O)O)C(=O)NCCCCN=C(N)N [E64]
effect on cleavage of substrate (FIG. 4) (BACE-1): no effect on cleavage of substrate

C[C@@H](NC(=O)c1cc(C(=O)N[C@@H](Cc2ccccc2)[C@H](O)CNC2CC2)cc(N(C)S(C)(=O)=O)c1)c1ccccc1 [Merck-3]
BACE-1 activity in CSF remaining after Pepstatin A (FIG. 9) (BACE-1 activity in CSF): completely abolished

CC(C)CC(=O)N[C@H](C(=O)N[C@H](C(=O)N[C@@H](CC(C)C)[C@@H](O)CC(=O)N[C@@H](C)C(=O)N[C@@H](CC(C)C)[C@@H](O)CC(=O)O)C(C)C)C(C)C [Pepstatin A, pepstatin A] (Isovaleryl-VV[Sta]A[Sta]-OH)
non-specific aspartyl protease activity (FIG. 4) [1]: abolished | non-specific aspartyl protease activity in CSF (FIG. 9) [2]: abolished
